Source: US20160030472A1, “XENON-BASED ANESTHETIC GAS COMPOSITION USABLE DURING AN ENDARTERECTOMY INVOLVING THE CLAMPING OF THE CAROTID ARTERY” (Air Liquide Santé (International), priority 2013, published 2016)

Tested on: patients scheduled for carotid surgery
Experiment: Randomized study of xenon versus sevoflurane for maintaining general anesthesia during carotid endarterectomy with clamping of the internal carotid artery
Type: in vivo, human being
Details: for average radial-carotid pressure gradient (PG) between systemic SAP and arterial pressure in the clamped carotid artery: during clamping of the internal carotid artery, group X (xenon 60%±5%, at least 30% oxygen) compared with group S (sevoflurane), 12 patients per group
Method: The study was carried out in 24 patients scheduled for carotid surgery, comprising men and women. The choice of treatment of the patients is made randomly (randomization): • either using a routine anesthetic agent, namely sevoflurane: group S of 12 patients, • or by inhalation of xenon at 60%±5% in a mixture with at least 30% of oxygen: group X of 12 patients (% by volume). Anesthesia was induced identically in the 2 groups using intravenous products, namely propofol (target 1.5 μg/ml) and a morphine compound, remifentanil (target 4 ng/ml), double TCI (Target Controlled Infusion). The main assessment criterion is the pressure gradient (PG) between the systolic arterial pressure (SAP) measured at the level of a radial arterial catheter contralateral to the surgery and the arterial pressure in the clamped carotid artery. This pressure is obtained by means of a Fogarty catheter, which also enables clamping of the internal carotid artery by inflation of the balloon, connected to a pressure sensor. The continuous recording and the calculation of the PG are carried out live by a BiopAC system. This method makes it possible to obtain a measurement of the PG throughout the entire duration of the clamping of the internal carotid artery. The statistical analyses are carried out with R Project for Statistician Computing (www.r-project.org).

| SMILES | consumption of vasopressor products for maintaining the systemic arterial pressure (group S compared with group X, p<0.001) | average radial-carotid pressure gradient (PG) between systemic SAP and arterial pressure in the clamped carotid artery (p<0.001) | average radial-carotid pressure gradient (PG) between systemic SAP and arterial pressure in the clamped carotid artery (p<0.001, listed as group X) | hemodynamic parameters during maintenance of anesthesia (maintenance of anesthesia with xenon) | systemic systolic arterial pressure values (maintenance of anesthesia with xenon, compared with the usual inhaled or intravenous (IV) anesthetic agents) |
| --- | --- | --- | --- | --- | --- |
| FCOC(C(F)(F)F)C(F)(F)F [sevoflurane, reference compound] | significantly higher |  |  |  |  |
| [Xe] [xenon] |  | reduce the pressure gradient (PG) | significantly lower | stable | higher |
